{"source": "patent US4150231A", "about": "“1-Nitro-9-dialkylaminoisoalkylaminoacridines or their salts” (priority 1976, dated 1979)", "key": {"circulatory system [1]": {"test_system": "circulatory system", "assay": "Circulatory and electrocardiographic effects", "type": "in vivo"}, "reproductory functions": {"test_system": "reproductory functions", "assay": "Influence on reproductory functions", "type": "in vivo"}, "kidneys": {"test_system": "kidneys", "design": "species or system rabbits and rats", "settings": "in vivo", "protocol": "(§1) The extended toxicity studies were carried out for a three-month period in rabbits and rats. Doses of from 1/100 to 1/40 LD50 were administered in the case of rabbits, and of from 1/150 to 1/50 LD50 in the case of rats. It should be noted that the highest doses were also the maximum tolerance doses during 12 weeks."}, "[2]": {"assay": "Acute toxicity, signs and comparison with other acridine derivatives", "type": "in vivo", "protocol": "(§2) On the other hand, similar doses as related to oral administration are about 100 mg/kg.\n(§3) The MTD-values by oral administration are even lower i.e., by 53-66% than the sharp lethal dose."}, "rats [3]": {"test_system": "rats", "assay": "Acute toxicity i.v. in rats (LD50, MTD)", "type": "in vivo"}, "[4]": {"assay": "Acute toxicity i.v. in rats (LD50, MTD)", "type": "in vivo", "settings": "rat, in vivo, iv, on average"}, "[5]": {"test_system": "muscular coat of the small intestine", "assay": "In vitro action on muscular coat of small intestine, rat", "settings": "10^-5 to 5×10^-5, rat"}, "mice": {"test_system": "mice", "assay": "Acute toxicity i.v. in mice (LD50, MTD)", "type": "in vivo"}, "[6]": {"assay": "Acute toxicity i.v. in mice (LD50, MTD)", "type": "in vivo", "settings": "mouse, in vivo, iv, on average"}, "mice and rats": {"test_system": "mice and rats", "assay": "Acute toxicity by oral administration (LD50, MTD)", "type": "in vivo", "protocol": "as §2, §3"}, "[7]": {"assay": "Acute toxicity by oral administration (LD50, MTD)", "type": "in vivo", "settings": "in vivo, mice and rats", "protocol": "as §2, §3"}, "liver": {"test_system": "liver", "design": "species or system rabbits and rats", "settings": "in vivo", "protocol": "as §1\nBy prolonged exposition, the influence of the preparation C-829 on the functions of the parenchymateous organs (liver, kidneys) was investigated. […] Only the thymol turbidity test resulted as a positive one, using the highest dosage of the preparation. But it should be kept in mind, that this test is not too exact."}, "circulatory system [8]": {"test_system": "circulatory system", "assay": "Circulatory action in atropinized animals", "type": "in vivo", "settings": "atropinized rabbits"}, "[9]": {"test_system": "muscular coat of the small intestine", "assay": "In vitro action on muscular coat of small intestine, guinea-pig", "settings": "10^-5 to 5×10^-5, guinea-pig"}, "Crocker Sarcoma (Sa-180)": {"test_system": "Crocker Sarcoma (Sa-180)", "assay": "Inhibition of growth of Crocker Sarcoma (Sa-180) in mice", "type": "in vivo", "settings": "33 determinations in ten series, different doses", "protocol": "The inhibition of growth of Crocker Sarcoma (Sa-180) in mice.\nFor these experiments mice, three months old and about 25 g in weight were used. Each of them was inoculated with a section of sarcoma (Sa-180 and then they were divided in groups: one of control -- 10 mice, and two to four groups of the \"being under treatment\"-mice (7 mice each).\nThe compound investigated in corresponding doses were administered intraperitoneally in appropriate doses, prior to which a maximum tolerance dose was determined.\nAs a criterion for evaluation of the anti-neoplastic activity of the compounds investigated, the percent difference of the mean weights of tumours isolated from control mice, and the \"treated\" mice was used, taking into consideration the toxic effects. As active compounds were those which have inhibited, by at least 40%, the growth of the tumours, in at least two tests without any dying of the animals (less than 2 mice), or any mean losses of the weight greater than 4 g.\nThe investigations in vivo of several compounds were carried out several times, e.g., for the preparation labeled code number C-829, that is for 1-nitro-9-(2-dimethylamino-1-methylethylamino)-acridine dihydrochloride. […] In doses of 0.05 to 0.2 mg/kg the percent of inhibition was 17 to 73%, correspondingly."}, "rats [10]": {"test_system": "rats", "assay": "Extended three-month toxicity study in rats", "type": "in vivo", "settings": "doses 1/150 to 1/50 LD50", "protocol": "as §1"}, "lymphatic system": {"test_system": "lymphatic system", "assay": "Extended toxicity: lymphatic system", "type": "in vivo, rabbits and rats", "settings": "three-month study", "protocol": "as §1"}, "respiratory system": {"test_system": "respiratory system", "assay": "Influence on the respiratory system", "type": "in vivo", "text": "The influence exerted by the preparation on the respiratory system is of two-phases."}, "[11]": {"assay": "Local irritation by aqueous solution", "type": "in vivo"}, "rabbits": {"test_system": "rabbits", "assay": "Extended three-month toxicity study in rabbits", "type": "in vivo", "settings": "doses 1/100 to 1/40 LD50", "protocol": "as §1"}, "central nervous system": {"test_system": "central nervous system", "type": "in vivo", "text": "The preparation C-829 exerted an effect on the principal functions of the central nervous system."}, "peripheral blood": {"test_system": "peripheral blood", "assay": "Extended toxicity: peripheral blood and clotting", "type": "in vivo, rabbits and rats", "protocol": "as §1"}, "[12]": {"test_system": "smooth muscle in the small intestine and the urinary bladder", "assay": "Action on smooth muscle of small intestine and urinary bladder", "type": "in vivo", "settings": "10 mg/kg, rabbit"}}, "note": "Entries after “also recorded” stand apart in the source; their conditions may differ.", "data": [{"smiles": "CC(CN(C)C)Nc1c2ccccc2nc2cccc([N+](=O)[O-])c12.Cl.Cl", "note": "(stereo not drawn) [Example C-829, 1-nitro-9-(2-dimethylamino-1-methylethylamino)-acridine dihydrochloride]", "values": [{"measurement": "ECG intervals: PQ and QRS sections", "setting": "circulatory system [1]; higher doses, intravenously", "result": "prolonging the PQ section and in widening the QRS section"}, {"measurement": "blood pressure and conductivity disturbances", "setting": "circulatory system [1]; higher doses, intravenously", "result": "intensified hypotension, induced some disturbances characteristic enough of the acridine compounds both in the atrio-ventricular and intraventricular conductivity"}, {"measurement": "electrocardiographic changes", "setting": "circulatory system [1]; initially, intravenously, doses increasing to 5 mg/kg", "result": "initially was not accompanied by any electrocardiographic changes"}, {"measurement": "effect on blood pressure", "setting": "circulatory system [1]; intravenously, doses increasing to 5 mg/kg, rabbits, cats", "result": "transient hypotension effect"}, {"measurement": "conductivity disturbance at lethal doses", "setting": "circulatory system [1]; lethal doses", "result": "total auriculoventricular dissociation"}, {"measurement": "character of circulatory effect", "setting": "circulatory system [1]; lower and moderate doses", "result": "transient character"}, {"measurement": "action on muscular coat of blood-vessels", "setting": "circulatory system [1]; rabbit, in vivo", "result": "tonic action on the muscular coat of the blood-vessels"}, {"measurement": "effect on testicles", "setting": "reproductory functions; 1/50 LD50, 14 days", "result": "some retrograde microscopical metaplasia within the germinal epithelium of spermatic tubules of the testicles, leading to a disorder in the spermatogenesis"}, {"measurement": "effect on females fructified and newborn animals per brood", "setting": "reproductory functions; 1/50 LD50, 14 days prior to connexion", "result": "reduced the amount of fructified females, as well as diminished the number of newborn animals in broods"}, {"measurement": "effect on ovary", "setting": "reproductory functions; 14 days", "result": "no observed pathological alteration in the ovary"}, {"measurement": "development of the foetus and newborn animals", "setting": "reproductory functions; 14 days prior to connexion", "result": "no macroscopic disorders of development of the foetus and newborn animals"}, {"measurement": "endogenous creatinine level in the serum", "setting": "kidneys", "result": "remained unchanged"}, {"measurement": "glomerular filterability", "setting": "kidneys", "result": "maintained within standard limits"}, {"measurement": "kidney histology", "setting": "kidneys", "result": "some focal parenchymatous degeneration character in renal tubules"}, {"measurement": "urine: pathological components and specific weight", "setting": "kidneys", "result": "neither induced any appearance of pathological components in urine, nor changed its specific weight"}, {"measurement": "period over which animals die", "setting": "[2]; in vivo", "result": "up to 10 days"}, {"measurement": "relative toxicity among the derivatives of acridine", "setting": "[2]; in vivo", "result": "relatively lower toxicity"}, {"measurement": "toxic signs at death", "setting": "[2]; regardless of the way of administration, dihydrochloride", "result": "intensified symptoms of the alimentary canal; also recorded: A sharp intestinal obstruction of the paralytic type occurs"}, {"measurement": "maximum tolerance dose (MTD), lower than LD50 by", "setting": "rats [3]", "result": "about 30%"}, {"measurement": "LD50", "setting": "[4]", "result": 13, "unit": "mg/kg"}, {"measurement": "action on muscular coat of the small intestine", "setting": "[5]", "result": "rather a contracting (enterospasmatic) one"}, {"measurement": "maximum tolerance dose (MTD), lower than LD50 by", "setting": "mice", "result": "~20", "unit": "%"}, {"measurement": "LD50", "setting": "[6]", "result": 21, "unit": "mg/kg"}, {"measurement": "MTD by oral administration, lower than the sharp lethal dose by", "setting": "mice and rats", "result": "53-66%"}, {"measurement": "LD50", "setting": "[7]", "result": "~100", "unit": "mg/kg"}, {"measurement": "liver function (transaminase AlAt, AspAt, acidic and alkaline phosphatase in serum)", "setting": "liver", "result": "It could not be determined, that it could influence the functions of the liver"}, {"measurement": "liver histology", "setting": "liver", "result": "some weak (hardly perceptible) traits of the parenchymatous degeneration of glandular cells"}, {"measurement": "thymol turbidity test", "setting": "liver", "result": "positive"}, {"measurement": "change of circulatory action by atropinization", "setting": "circulatory system [8]", "result": "does not change the action of the preparation on the circulatory system"}, {"measurement": "action on muscular coat of the small intestine", "setting": "[9]", "result": "rather a contracting (enterospasmatic) one"}, {"measurement": "dose dependence of inhibition of Sa-180 growth", "setting": "Crocker Sarcoma (Sa-180)", "result": "dependent upon the dose"}, {"measurement": "maximum tolerance dose during 12 weeks (highest dose)", "setting": "rats [10]", "result": "1/50"}, {"measurement": "lymphatic system: proliferous centers and small lymphocytes", "setting": "lymphatic system", "result": "The structure of the proliferous centers became imperceptible, and also the amount of small lymphocytes diminished"}, {"measurement": "lymphatic system: rete elements", "setting": "lymphatic system", "result": "hypertrophy of rete elements"}, {"measurement": "alterations in the lymphatic system", "setting": "lymphatic system; especially mesenteric lymph nodes", "result": "very discretely marked involutional alterations"}, {"measurement": "respiratory effect, initial phase", "setting": "respiratory system; at the appearance of hypotension", "result": "instinctive respiratory excitation"}, {"measurement": "respiratory effect, massive doses", "setting": "respiratory system; massive doses", "result": "depressive centrally for respiratory action, leading terminally to an apnoea"}, {"measurement": "local action of aqueous solution", "setting": "[11]; 0.05-1% aqueous solution", "result": "locally irritating action"}, {"measurement": "local action at higher concentrations", "setting": "[11]; higher concentrations, aqueous solution", "result": "narcotizing effect"}, {"measurement": "local irritation with phosphate buffer as solvent", "setting": "[11]; phosphate buffer solution of Sorensen at pH 7", "result": "partially alleviated"}, {"measurement": "maximum tolerance dose during 12 weeks (highest dose)", "setting": "rabbits", "result": "1/40"}, {"measurement": "interaction with soporific (hypnotic) drugs", "setting": "central nervous system; 10 LD50 (so in the source)", "result": "clear depressive component value"}, {"measurement": "action in the presence of cardiazol and strychnine", "setting": "central nervous system; in vivo", "result": "complex and non-characteristic"}, {"measurement": "influence on spontaneous motility", "setting": "central nervous system; in vivo", "result": "devoid, indeed, of an influence on the spontaneous motility of animals"}, {"measurement": "influence on the thrombocyte system", "setting": "peripheral blood; preliminary investigations", "result": "did not show the influence of the preparation on the thrombocyte system"}, {"measurement": "picture of the peripheral blood (leukocytic, erythrocytic, hemoglobin levels)", "setting": "peripheral blood; three-month study", "result": "did not change the picture of the peripheral blood"}, {"measurement": "blood clotting (coagulation) time", "setting": "peripheral blood; three-month study, not correlated with dosage", "result": "prolonged the blood clotting (coagulation) time"}, {"measurement": "action on smooth muscle", "setting": "[12]", "result": "spasmolytic"}]}]}
